Patent publication US20070026408A1, “Materials and methods for analysis of atp-binding cassette transporter gene expression” (priority 2003, published 2007)
Where a name gives a salt, the structure may show the parent alone.

What was measured:
abcG4 = experiment: DT1 microarray drug screening, drug-treated HepG2: abcG4; format: cell-based, human; settings: HepG2, doxorubicin HCl 25 nM, standard 11
Protocol: (§1) The labelled cDNA target preparation was thawed and the 150 μl added to 850 ul hybridisation buffer (500 mM sodium Phosphate pH 6.0, 1% SDS, 1% BSA, 1 mM EDTA) in a 1.5 ml microtube and heated at 95° C. for 10 min.

abcC6 = experiment: DT1 microarray drug screening, drug-treated HepG2: abcC6; format: cell-based, human; settings: HepG2, doxorubicin HCl 25 nM, standard 11
Protocol: as §1

abcF3 = experiment: DT1 microarray drug screening, drug-treated HepG2: abcF3; format: cell-based, human; settings: HepG2, doxorubicin HCl 25 nM, standard 11
Protocol: as §1

abcB1 = experiment: DT1 microarray drug screening, drug-treated HepG2: abcB1; format: cell-based, human; settings: HepG2, doxorubicin HCl 25 nM, standard 11
Protocol: as §1

abcA1 = experiment: DT1 microarray drug screening, drug-treated HepG2: abcA1; format: cell-based, human; settings: HepG2, doxorubicin HCl 25 nM, standard 11
Protocol: as §1

abcB7 = experiment: DT1 microarray drug screening, drug-treated HepG2: abcB7; format: cell-based, human; settings: HepG2, doxorubicin HCl 25 nM, standard 11
Protocol: as §1

abcC8 = experiment: DT1 microarray drug screening, drug-treated HepG2: abcC8; format: cell-based, human; settings: HepG2, doxorubicin HCl 25 nM, standard 11
Protocol: as §1

abcB11 = experiment: DT1 microarray drug screening, drug-treated HepG2: abcB11; format: cell-based, human; settings: HepG2, doxorubicin HCl 25 nM, standard 11
Protocol: as §1

abcC3 = experiment: DT1 microarray drug screening, drug-treated HepG2: abcC3; format: cell-based, human; settings: HepG2, doxorubicin HCl 25 nM, standard 11
Protocol: as §1

abcC11 = experiment: DT1 microarray drug screening, drug-treated HepG2: abcC11; format: cell-based, human; settings: HepG2, doxorubicin HCl 25 nM, standard 11
Protocol: as §1

abcC7 = experiment: DT1 microarray drug screening, drug-treated HepG2: abcC7; format: cell-based, human; settings: HepG2, doxorubicin HCl 25 nM, standard 11
Protocol: as §1

abcA8 = experiment: DT1 microarray drug screening, drug-treated HepG2: abcA8; format: cell-based, human; settings: HepG2, doxorubicin HCl 25 nM, standard 11
Protocol: as §1

abcB4 = experiment: DT1 microarray drug screening, drug-treated HepG2: abcB4; format: cell-based, human; settings: HepG2, doxorubicin HCl 25 nM, standard 11
Protocol: as §1

abcA2 = experiment: DT1 microarray drug screening, drug-treated HepG2: abcA2; format: cell-based, human; settings: HepG2, doxorubicin HCl 25 nM, standard 11
Protocol: as §1

abcB10 = experiment: DT1 microarray drug screening, drug-treated HepG2: abcB10; settings: HepG2, doxorubicin HCl 25 nM, standard 11
abcA9 = experiment: DT1 microarray drug screening, drug-treated HepG2: abcA9; format: cell-based, human; settings: HepG2, doxorubicin HCl 25 nM, standard 11
Protocol: as §1

abcC10 = experiment: DT1 microarray drug screening, drug-treated HepG2: abcC10; format: cell-based, human; settings: HepG2, doxorubicin HCl 25 nM, standard 11
Protocol: as §1

abcC13 = experiment: DT1 microarray drug screening, drug-treated HepG2: abcC13; format: cell-based, human; settings: HepG2, doxorubicin HCl 25 nM, standard 11
Protocol: as §1

abcB3 = experiment: DT1 microarray drug screening, drug-treated HepG2: abcB3; format: cell-based, human; settings: HepG2, doxorubicin HCl 25 nM, standard 11
Protocol: as §1

abcA10 = experiment: DT1 microarray drug screening, drug-treated HepG2: abcA10; format: cell-based, human; settings: HepG2, doxorubicin HCl 25 nM, standard 11
Protocol: as §1

abcB2 = experiment: DT1 microarray drug screening, drug-treated HepG2: abcB2; format: cell-based, human; settings: HepG2, doxorubicin HCl 25 nM, standard 11
Protocol: as §1

abcB6 = experiment: DT1 microarray drug screening, drug-treated HepG2: abcB6; format: cell-based, human; settings: HepG2, doxorubicin HCl 25 nM, standard 11
Protocol: as §1

abcD3 = experiment: DT1 microarray drug screening, drug-treated HepG2: abcD3; format: cell-based, human; settings: HepG2, doxorubicin HCl 25 nM, standard 11
Protocol: as §1

abcG8 = experiment: DT1 microarray drug screening, drug-treated HepG2: abcG8; format: cell-based, human; settings: HepG2, doxorubicin HCl 25 nM, 2 h, standard 11
Protocol: as §1

## COc1cccc2c1C(=O)c1c(O)c3c(c(O)c1C2=O)C[C@@](O)(C(=O)CO)C[C@@H]3O[C@H]1C[C@H](N)[C@H](O)[C@H](C)O1 [dox, doxorubicin HCl]
abcG4; 2 h
  relative level of abcG4 gene expression: 9.59
abcG4; 4 h
  relative level of abcG4 gene expression: 5.309
abcG4; 8 h
  relative level of abcG4 gene expression: 6.271
abcC6; 2 h
  relative level of abcC6 gene expression: 7.696
abcC6; 4 h
  relative level of abcC6 gene expression: 4.516
abcC6; 8 h
  relative level of abcC6 gene expression: 4.899
abcF3; 2 h
  relative level of abcF3 gene expression: 3.921
abcF3; 4 h
  relative level of abcF3 gene expression: 2.795
abcF3; 8 h
  relative level of abcF3 gene expression: 2.793
abcB1; 2 h
  relative level of abcB1 gene expression: 6.735
abcB1; 4 h
  relative level of abcB1 gene expression: 3.865
abcB1; 8 h
  relative level of abcB1 gene expression: 4.759
abcA1; 2 h
  relative level of abcA1 gene expression: 3.053
abcA1; 4 h
  relative level of abcA1 gene expression: 1.866
abcA1; 8 h
  relative level of abcA1 gene expression: 2.346
abcB7; 2 h
  relative level of abcB7 gene expression: 0.2622
abcB7; 4 h
  relative level of abcB7 gene expression: 0.1619
abcB7; 8 h
  relative level of abcB7 gene expression: 0.1766
abcC8; 2 h
  relative level of abcC8 gene expression: 0.3229
abcC8; 4 h
  relative level of abcC8 gene expression: 0.2437
abcC8; 8 h
  relative level of abcC8 gene expression: 0.2255
abcB11; 2 h
  relative level of abcB11 gene expression: 5.31
abcB11; 4 h
  relative level of abcB11 gene expression: 3.404
abcB11; 8 h
  relative level of abcB11 gene expression: 3.888
abcC3; 2 h
  relative level of abcC3 gene expression: 7.156
abcC3; 4 h
  relative level of abcC3 gene expression: 4.014
abcC3; 8 h
  relative level of abcC3 gene expression: 4.2
abcC11; 2 h
  relative level of abcC11 gene expression: 7.608
abcC11; 4 h
  relative level of abcC11 gene expression: 4.384
abcC11; 8 h
  relative level of abcC11 gene expression: 5.056
abcC7; 2 h
  relative level of abcC7 gene expression: 7.481
abcC7; 4 h
  relative level of abcC7 gene expression: 4.5794
abcC7; 8 h
  relative level of abcC7 gene expression: 5.093
abcA8; 2 h
  relative level of abcA8 gene expression: 3.036
abcA8; 4 h
  relative level of abcA8 gene expression: 1.786
abcA8; 8 h
  relative level of abcA8 gene expression: 2.174
abcB4; 2 h
  relative level of abcB4 gene expression: 9.148
abcB4; 4 h
  relative level of abcB4 gene expression: 5.624
abcB4; 8 h
  relative level of abcB4 gene expression: 6.417
abcA2; 2 h
  relative level of abcA2 gene expression: 6.224
abcA2; 4 h
  relative level of abcA2 gene expression: 2.947
abcA2; 8 h
  relative level of abcA2 gene expression: 4.022
abcB10; 2 h
  relative level of abcB10 gene expression: 2.116
abcB10; 4 h
  relative level of abcB10 gene expression: 1.484
abcB10; 8 h
  relative level of abcB10 gene expression: 1.542
abcA9; 2 h
  relative level of abcA9 gene expression: 7.825
abcA9; 4 h
  relative level of abcA9 gene expression: 4.817
abcA9; 8 h
  relative level of abcA9 gene expression: 5.72
abcC10; 2 h
  relative level of abcC10 gene expression: 5.151
abcC10; 4 h
  relative level of abcC10 gene expression: 3.335
abcC10; 8 h
  relative level of abcC10 gene expression: 3.633
abcC13; 2 h
  relative level of abcC13 gene expression: 3.203
abcC13; 4 h
  relative level of abcC13 gene expression: 2.548
abcC13; 8 h
  relative level of abcC13 gene expression: 2.593
abcB3; 2 h
  relative level of abcB3 gene expression: 6.838
abcB3; 4 h
  relative level of abcB3 gene expression: 4.325
abcB3; 8 h
  relative level of abcB3 gene expression: 4.813
abcA10; 2 h
  relative level of abcA10 gene expression: 4.82
abcA10; 4 h
  relative level of abcA10 gene expression: 3.419
abcA10; 8 h
  relative level of abcA10 gene expression: 3.793
abcB2; 2 h
  relative level of abcB2 gene expression: 5.067
abcB2; 4 h
  relative level of abcB2 gene expression: 3.715
abcB2; 8 h
  relative level of abcB2 gene expression: 4.008
abcB6; 2 h
  relative level of abcB6 gene expression: 5.174
abcB6; 4 h
  relative level of abcB6 gene expression: 3.283
abcB6; 8 h
  relative level of abcB6 gene expression: 3.612
abcD3; 2 h
  relative level of abcD3 gene expression: 2.099
abcD3; 4 h
  relative level of abcD3 gene expression: 1.787
abcD3; 8 h
  relative level of abcD3 gene expression: 1.733
abcG8
  relative level of abcG8 gene expression: 4.697
